Reference: article PMC10226132, “First-in-Class Selective Inhibitors of the Lysine Acetyltransferase KAT8” (Journal of Medicinal Chemistry, 2023)

Assays:
KDAC1 = KDAC1 (Homo sapiens, UniProt Q13547); experiment: KDAC inhibition assay, KDAC1; assay type: biochemical; details: mean of three technical replicates
Experimental: (§1) KDAC1, 2, 3 6, and 8 inhibition assays were performed as described previously.[52] Briefly, the relevant human recombinant KDAC was diluted in an assay buffer with the following composition: 150 mM NaCl, 25 mM Tris–HCl (pH 8.0), 2.7 mM KCl, and 1 mM MgCl2; BSA (0.1 mg/mL) was also added in the case of KDAC1. Forty microliters of this solution were added to 10 μL of each inhibitor ([…]) and 50 μL of KDAC Assay substrate (Boc-Lys-(Ac)-AMC, 7–100 μM final concentration, depending on the KDAC isoform), and the resulting solution was mixed. […] After thorough mixing of the resulting solution, the plate was covered and incubated at 37 °C for 25 min and the fluorescence (λemission = 460 nm; λexcitation = 390 nm) was measured on a EnSight Multimode Plate Reader (Perkin Elmer). The shown values are average of three technical replicates ± SD.

[1] = HPLC-based analysis of thiol reactivity; assay type: physicochemical; details: 0.5 mM compound, 2 mM DTT, BME or GSH, pH 7.5, 1, 8 or 24 h at room temperature
Experimental: Compounds 19 and 34 were dissolved in a solution containing 100 mM NaCl and 40 mM Tris·HCl (pH 7.5) with the addition of DTT, BME, or GSH (each at 2 mM) to a final concentration of 0.5 mM and incubated for 1, 8, and 24 h at rt. HPLC analysis was then performed at three wavelengths (254, 286, and 395 nm) under the same conditions described in the “Chemistry” paragraph of the Experimental Section.

KDAC2 = KDAC2 (Homo sapiens, UniProt Q92769); experiment: KDAC inhibition assay, KDAC2; assay type: biochemical; details: mean of three technical replicates
Experimental: as §1

KDAC6 = target: T1, KDAC6 (Homo sapiens, UniProt Q9UBN7); experiment: KDAC inhibition assay, KDAC6; assay type: biochemical; details: mean of three technical replicates
T1 sequence (Q9UBN7 1-1215): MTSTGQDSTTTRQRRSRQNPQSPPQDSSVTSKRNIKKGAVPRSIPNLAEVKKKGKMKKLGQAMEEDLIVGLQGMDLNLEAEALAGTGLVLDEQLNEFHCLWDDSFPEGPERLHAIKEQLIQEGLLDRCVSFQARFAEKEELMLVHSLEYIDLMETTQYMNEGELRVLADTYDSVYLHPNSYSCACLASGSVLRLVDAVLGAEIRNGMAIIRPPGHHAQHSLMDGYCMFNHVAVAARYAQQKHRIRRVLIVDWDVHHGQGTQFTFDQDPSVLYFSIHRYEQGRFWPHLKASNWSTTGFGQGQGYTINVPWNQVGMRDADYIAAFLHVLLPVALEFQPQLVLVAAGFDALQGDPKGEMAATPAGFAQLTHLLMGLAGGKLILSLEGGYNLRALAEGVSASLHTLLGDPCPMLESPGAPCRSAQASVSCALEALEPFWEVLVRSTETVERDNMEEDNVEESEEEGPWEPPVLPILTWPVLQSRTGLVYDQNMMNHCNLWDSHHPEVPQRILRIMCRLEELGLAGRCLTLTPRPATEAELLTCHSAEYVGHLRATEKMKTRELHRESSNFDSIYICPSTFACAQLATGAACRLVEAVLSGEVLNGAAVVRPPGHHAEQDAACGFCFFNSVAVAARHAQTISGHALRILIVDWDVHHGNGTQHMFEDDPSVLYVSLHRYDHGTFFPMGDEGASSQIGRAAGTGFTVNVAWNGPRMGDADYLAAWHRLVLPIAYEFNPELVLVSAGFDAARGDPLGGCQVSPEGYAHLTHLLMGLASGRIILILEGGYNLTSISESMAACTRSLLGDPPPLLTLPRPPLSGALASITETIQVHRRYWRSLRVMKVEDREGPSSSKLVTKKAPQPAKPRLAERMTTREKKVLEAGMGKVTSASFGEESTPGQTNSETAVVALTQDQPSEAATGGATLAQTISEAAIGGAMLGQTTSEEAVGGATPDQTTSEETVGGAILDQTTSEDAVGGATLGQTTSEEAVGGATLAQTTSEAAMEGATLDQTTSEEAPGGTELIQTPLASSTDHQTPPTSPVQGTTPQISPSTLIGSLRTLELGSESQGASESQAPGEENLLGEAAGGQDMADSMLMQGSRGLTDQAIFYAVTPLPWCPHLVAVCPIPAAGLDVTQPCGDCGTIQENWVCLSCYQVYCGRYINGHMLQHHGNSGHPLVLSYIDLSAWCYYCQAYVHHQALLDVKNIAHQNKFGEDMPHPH
Experimental: as §1

KAT7 = target: T2, KAT7 (Homo sapiens, UniProt O95251); experiment: HotSpot KAT assay, KAT7; assay type: biochemical; details: for inhibition at 200 µM: read-out: % inhibition at 200 μM KAT7 (25 nM), NI = no inhibition
T2 construct: full length human KAT5 (25 nM) and KAT7 (25 nM) were used; purchased Reaction Biology Corporation
Experimental: The effects of the compounds on other KATs were determined using the HotSpot KAT assay (Reaction Biology Corporation, Malvern, PA, USA) according to the supplier’s procedure. The recombinant catalytic domains of human KAT2A (aa 323–837, 15 nM), KAT2B (aa 492–658, 25 nM), KAT3B (aa 1284–1672, 1 nM), KAT6A (aa 488–778, 10 nM), KAT6B (aa 657–1069, 10 nM), and full length human KAT5 (25 nM) and KAT7 (25 nM) were used. Each enzyme was incubated with the relevant histone peptide [H3 peptide for KAT2A, KAT2B, KAT3B, KAT6A, and KAT7 (2.5–5 μM, depending on the KAT isoform); H2A peptide for KAT5 (1.25 μM); H4 peptide for KAT6B (2.5 μM)] as a substrate and radio-isotope-labeled [^3H]Acetyl-CoA (0.2–1.5 μM, depending on the KAT isoform) as an acetyl donor in the assay buffer [50 mM Tris–HCl (pH 8.0), 50 mM NaCl, 0.1 mM EDTA, 1 mM DTT, 0.1 mM PMSF, 1% DMSO] for 1 h at 30 °C in the presence or absence of various compounds (1% DMSO final) titrated in a 2-fold serial dilution starting at 200 μM. Histone peptide acetylation was assessed by liquid scintillation counting using a Tri-Carb 2800TR Liquid Scintillation Analyzer (Perkin Elmer). Experiments were performed in biological triplicates. Signal reduction compared to control was plotted (as inhibition percentage) as a function of compound concentration. In cases in which an IC50 was calculated, the values were fitted by nonlinear regression (GraphPad Prism 8.0).

Chain of KDAC1 (Q13547 whole entry, canonical isoform): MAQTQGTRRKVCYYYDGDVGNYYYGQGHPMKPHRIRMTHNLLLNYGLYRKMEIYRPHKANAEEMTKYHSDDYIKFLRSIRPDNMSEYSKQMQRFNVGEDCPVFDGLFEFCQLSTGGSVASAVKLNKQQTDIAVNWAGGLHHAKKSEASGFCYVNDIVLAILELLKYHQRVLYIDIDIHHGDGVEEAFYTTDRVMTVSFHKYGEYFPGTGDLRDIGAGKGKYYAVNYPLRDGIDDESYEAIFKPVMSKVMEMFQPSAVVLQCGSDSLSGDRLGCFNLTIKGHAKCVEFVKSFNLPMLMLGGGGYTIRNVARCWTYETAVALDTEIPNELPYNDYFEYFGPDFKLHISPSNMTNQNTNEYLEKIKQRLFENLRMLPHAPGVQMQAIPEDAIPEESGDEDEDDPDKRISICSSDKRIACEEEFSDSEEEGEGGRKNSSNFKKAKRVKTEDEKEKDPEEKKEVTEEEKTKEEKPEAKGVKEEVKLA
Chain of KDAC2 (Q92769 whole entry): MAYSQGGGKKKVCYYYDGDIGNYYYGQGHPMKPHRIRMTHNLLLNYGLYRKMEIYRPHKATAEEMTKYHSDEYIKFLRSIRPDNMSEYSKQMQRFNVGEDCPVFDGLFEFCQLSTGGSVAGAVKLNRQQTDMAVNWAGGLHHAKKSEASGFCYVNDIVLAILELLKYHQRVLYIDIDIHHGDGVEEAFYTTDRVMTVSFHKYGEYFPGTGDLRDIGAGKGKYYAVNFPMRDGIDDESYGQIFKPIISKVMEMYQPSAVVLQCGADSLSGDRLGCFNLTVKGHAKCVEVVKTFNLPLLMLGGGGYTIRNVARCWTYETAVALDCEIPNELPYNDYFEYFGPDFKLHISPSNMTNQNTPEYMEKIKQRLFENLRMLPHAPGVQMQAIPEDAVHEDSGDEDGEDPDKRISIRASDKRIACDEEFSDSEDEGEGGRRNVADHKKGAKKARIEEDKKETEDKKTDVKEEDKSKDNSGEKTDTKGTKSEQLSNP
T2 sequence (O95251 whole entry): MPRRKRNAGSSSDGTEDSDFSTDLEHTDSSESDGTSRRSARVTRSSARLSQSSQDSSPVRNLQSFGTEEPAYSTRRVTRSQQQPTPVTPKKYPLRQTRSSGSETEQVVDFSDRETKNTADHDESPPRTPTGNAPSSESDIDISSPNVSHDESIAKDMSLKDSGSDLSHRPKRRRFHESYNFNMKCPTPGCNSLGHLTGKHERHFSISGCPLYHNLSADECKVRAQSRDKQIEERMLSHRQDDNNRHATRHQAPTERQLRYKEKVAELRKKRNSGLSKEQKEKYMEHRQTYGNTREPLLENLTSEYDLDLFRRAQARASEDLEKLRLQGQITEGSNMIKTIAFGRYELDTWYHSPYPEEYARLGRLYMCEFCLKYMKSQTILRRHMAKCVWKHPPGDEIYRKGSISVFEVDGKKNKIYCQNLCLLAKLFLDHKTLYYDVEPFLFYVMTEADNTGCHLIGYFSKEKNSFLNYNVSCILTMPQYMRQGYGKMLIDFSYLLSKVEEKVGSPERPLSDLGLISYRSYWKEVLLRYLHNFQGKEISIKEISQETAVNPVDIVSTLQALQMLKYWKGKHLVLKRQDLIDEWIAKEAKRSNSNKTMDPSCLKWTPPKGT

inhibition at 50 µM (KDAC1)	inhibition at 100 µM (KDAC1)	reaction with thiol-containing nucleophiles (HPLC) [1]	inhibition at 50 µM (KDAC2)	inhibition at 100 µM (KDAC2)	inhibition at 50 µM (KDAC6)	inhibition at 100 µM (KDAC6)	inhibition at 200 µM (KAT7)	IC50 (KAT7; control compound, read-out: IC50 KAT7 (25 nM))	SMILES
0.03%	0.3%	no evidence of reaction	0.01%	0.7%	0.4%	1.3%	0%	–	CC1=NN(c2ccc(C(=O)O)cc2)C(=O)/C1=C\c1ccc[nH]1 [Compound 19, (Z)-4-(4-((1H-Pyrrol-2-yl)methylene)-3-methyl-5-oxo-4,5-dihydro-1H-pyrazol-1-yl)benzoic Acid]
0.7%	1.3%	–	75.4%	87.6%	87.2%	98.1%	–	8 µM	CC1=NN(c2ccc(C(=O)O)cc2)C(=O)/C1=C\c1ccc(-c2cc(C)c(C)cc2[N+](=O)[O-])o1 [VII (C646), reference compound]
0.04%	0.5%	no evidence of reaction	0.03%	0.4%	0.6%	2.1%	16.9 ± 0.7%	–	O=C(O)c1ccc(N2N=C(c3ccccc3)/C(=C/c3ccc[nH]3)C2=O)cc1 [Compound 34, (Z)-4-(4-((1H-Pyrrol-2-yl)methylene)-5-oxo-3-phenyl-4,5-dihydro-1H-pyrazol-1-yl)benzoic Acid]
